Measured values reported in patent US20260207720A1, “COMPOSITIONS AND METHODS FOR TREATING FUNGAL INFECTIONS” (MUCPharm Pty Ltd, priority 2022, published 2026).
Converted amounts (≈) assume the structure as drawn. Read-outs that look alike come from different tables or passages of the source.

How the values were obtained:
Type in all cases: cell-based
Candida auris = test: Susceptibility assay of antifungals with BromAc (Example 4); conditions: for Observed inhibitory effect: Candida aurus, antifungal in combination with BromAc (5 mg/ml Acetylcysteine+12.5 μg/ml Bromelain) vs alone
Description: (§1) The in vitro antifungal properties of Bromelain, Acetylcysteine, BromAc, Amphotericin B, Isavuconazole, Fluconazole and Posaconazole were determined using a broth microdilution method in round bottom 96 well plates in accordance with standard procedures defined by the Clinical Laboratory Standards Institute (CLSI).
(§2) Unless otherwise described, fungal cultures were grown on potato dextrose agar plates at 35° C. until mature (appearance of conidia) and used to prepare suspensions in sterile water. Suspensions were diluted in RPMI 1:60. These suspensions were then added in equal volume to solutions containing the candidate species described above and incubated at 35° C. for 24 hr. Plates were then analysed for fungal growth inhibition and MIC values determined.
(§3) BromAc (5 mg/ml Acetylcysteine+12.5 μg/ml Bromelain) was used in combination with Amphotericin B, Isavuconazole, Posaconazole and Fluconazole. The MIC values of these four antifungal agents against the fungus described below were calculated and compared with their corresponding MIC values in the presence of BromAc, using the standard susceptibility assays described above.
(§4) The fungal strains set out in Table 2, all of which were sourced from a range of clinical isolates from Australian hospitals, were used in these experiments to gain a further understanding of the efficacy of BromAc in combination with Amphotericin B, Isavuconazole, Posaconazole and Fluconazole.

Candida tropicalis = test: as above; conditions: antifungal in combination with BromAc (5 mg/ml Acetylcysteine+12.5 μg/ml Bromelain) vs alone
Description: as §1, §2, §3, §4

Candida glabrata = test: as above; conditions: for Observed inhibitory effect: antifungal in combination with BromAc (5 mg/ml Acetylcysteine+12.5 μg/ml Bromelain) vs alone
Description: as §1, §2, §3, §4

Cryptococcus = test: as above; conditions: for Observed inhibitory effect: antifungal in combination with BromAc (5 mg/ml Acetylcysteine+12.5 μg/ml Bromelain) vs alone; for isolates with more than 10× increase: antifungal with BromAc
Description: as §1, §2, §3, §4

Candida kruseii = test: as above; conditions: antifungal in combination with BromAc (5 mg/ml Acetylcysteine+12.5 μg/ml Bromelain) vs alone
Description: as §1, §2, §3, §4

[1] = system: Candida glabrata (clinical isolate); test: Broth dilution susceptibility test, MIC and percent growth (Example 5)
Description: These experiments were conducted to determine the effect of BromAc alone and in combination with existing antifungal drugs against Candida glabrata (clinical isolate).
(§5) A. Preparation of inoculum: • 1. Candida glabrata was grown on Sabouraud dextrose agar (SDA) at 37° C. for 24-48 hrs. • 2. Following this, 5 colonies of 1 mm diameter were picked and suspended in 5 mL sterile saline (0.9% saline) and vortexed for 15 seconds. • 3. Working suspension is prepared as a 1:100 dilution from stock suspension with RPMI 1640 culture medium. • 4. The cell density is adjusted with a spectrophotometer to the transmittance produced by a 0.5 McFarland standard (0.08 to 0.1) OD at 625 nm wavelength.
(§6) • 1. For Bromelain, a stock concentration of 1 mg/ml Bromelain solution was prepared in RPMI media and diluted to test concentrations of 62.4, 31.2, 15.6 and 7.8 μg/ml in RPMI 1640 media. • 2. Acetylcysteine stock concentration is 200 mg/ml, diluted to 40, 20, 10, and 5 mg/ml concentrations in RPMI 1640 medium. • 3. These concentrations are prepared at 2× of the required concentrations in the final assay plate.
(§7) Antifungal stock concentrations are as follows— • 1. Amphotericin B, Stock concentration: 250 μg/ml in water. • 2. Posaconazole, Original concentration: 300 mg in 16.7 ml, Working stock concentration: 1 mg/ml in DMSO. • 3. Fluconazole, Original concentration: 100 mg in 50 ml, Working stock concentration: 1 mg/ml in DMSO. • 4. The final concentration was prepared in RPMI 1640 media and concentrations range was 0.01-0.5 μg/mL for amphotericin B, 0.01-2 μg/mL for posaconazole and 0.01-64 μg/mL for fluconazole. • 5. These concentrations were prepared at 2× of the required concentrations in the final assay plate.
(§8) • 1. Wells of the 96-well plates were inoculated with appropriate concentrations and volumes of drugs. • 2. Sterility control and growth controls are included in each plate. • 3. Each 96-well plate (except the control wells) contains 100 μL of double strength (twice the final antifungal drug) concentrations. • 4. 100 μL of the fungal suspension is added to 96-well plates (except the sterility control wells). • 5. The growth control wells contained 100 μL of sterile drug-free medium and 100 μL of inoculum suspension, while the sterility control wells contained 200 μl of sterile drug-free medium. • 6. Plates are then incubated at 37° C. and read at 625,430, and 530 nm wavelengths. • 7. Data from 24 hours and absorbance at 625 nm were used for analysis.

[2] = system: Candida Krusei (ATCC strain 6258); test: Broth dilution susceptibility test, MIC and percent growth (Example 6)
Description: as §5, §6, §7, §8
These experiments were conducted to determine the effect of BromAc alone and in combination with existing antifungal drugs against Candida Krusei (ATCC strain 6258).
The method used in these experiments is essentially the same as that described above in Example 5.

Licthemia = test: Susceptibility assay of antifungals with BromAc (Example 4); conditions: antifungal in combination with BromAc (5 mg/ml Acetylcysteine+12.5 μg/ml Bromelain) vs alone
Description: as §1, §2, §3, §4

Cunninghamella = test: as above; conditions: antifungal in combination with BromAc (5 mg/ml Acetylcysteine+12.5 μg/ml Bromelain) vs alone
Description: as §1, §2, §3, §4

Scedosporium = test: as above; conditions: antifungal in combination with BromAc (5 mg/ml Acetylcysteine+12.5 μg/ml Bromelain) vs alone
Description: as §1, §2, §3, §4

Mucor circinelloides = test: as above
Description: as §1, §2, §3, §4

Fusarium = test: as above; conditions: antifungal in combination with BromAc (5 mg/ml Acetylcysteine+12.5 μg/ml Bromelain) vs alone
Description: as §1, §2, §3, §4

Aspergillus = test: as above; conditions: antifungal in combination with BromAc (5 mg/ml Acetylcysteine+12.5 μg/ml Bromelain) vs alone
Description: as §1, §2, §3, §4

Lomentospora = test: as above; conditions: antifungal in combination with BromAc (5 mg/ml Acetylcysteine+12.5 μg/ml Bromelain) vs alone
Description: as §1, §2, §3, §4

Rhizopus microsporus = test: Chequerboard broth microdilution antifungal susceptibility testing (MIC)
Description: as §2, with “Suspensions were diluted in RPMI 1:60.” left out, “determined. […] [MICA (combined)/MICA]+[MICB (combined)/MICB] MICA (combined) is the MIC of drug A when both drugs (i.e. drug A and drug B) are present and MICA is the MIC of drug A used in isolation. Similarly, MICB (combined) is the MIC of drug B when both drugs are present and MICB is the MIC of drug B used in isolation.” for “determined.”

Rhizopus arrhizus = test: as above
Description: as §2, with “Suspensions were diluted in RPMI 1:60.” left out, “determined. […] [MICA (combined)/MICA]+[MICB (combined)/MICB] MICA (combined) is the MIC of drug A when both drugs (i.e. drug A and drug B) are present and MICA is the MIC of drug A used in isolation. Similarly, MICB (combined) is the MIC of drug B when both drugs are present and MICB is the MIC of drug B used in isolation.” for “determined.”

[3] = system: Aspergillus fumigatus (ATCC strain 13697); test: Broth dilution susceptibility test, MIC and percent growth (Example 7)
Description: as §5, §6, §7, §8
These experiments were conducted to determine the efficacy of BromAc alone and in combination with existing antifungal drugs against Aspergillus fumigatus (ATCC strain 13697).
The method used in these experiments is essentially the same as that described above in Example 5. In these experiments, however, echinocandins such as […] Caspofungin are used in place of the azole antifungals described in earlier examples.

OC(Cn1cncn1)(Cn1cncn1)c1ccc(F)cc1F [Fluconazole]
Observed inhibitory effect (Candida auris): No effect | Observed inhibitory effect (Candida tropicalis): Strong (Strong = 5-10x (or greater) inhibitory effect) | Observed inhibitory effect (Candida glabrata): Strong (Strong = 5-10x (or greater) inhibitory effect) | Observed inhibitory effect (Cryptococcus): Strong (Strong = 5-10x (or greater) inhibitory effect) | isolates with more than 10× increase (Cryptococcus): 5 of 5 | Observed inhibitory effect (Candida kruseii): Strong (Strong = 5-10x (or greater) inhibitory effect) | MIC ([1]; Nakaseomyces glabratus, 50% growth inhibition, 24 hours, 625 nm): > 32 µg/mL | effect at lower concentration compared to growth control (in words) ([1]; concentrations lower than the MIC): no change | MIC ([2]; Pichia kudriavzevii, ATCC6258, 50% growth inhibition, FIG. 11): 32 µg/mL | inhibition at 32 µg/mL ([2]; Pichia kudriavzevii, ATCC6258, Posaconazole 1 ug/ml, Fluconazole 32 μg/ml, read-out: activity (growth inhibition) at its MIC): 50% | effect at lower doses / concentrations compared to GC (in words) ([2]; below the MIC (Posaconazole 0.03 μg/ml)): no efficacy

C[C@@H](c1nc(-c2ccc(C#N)cc2)cs1)[C@](O)(Cn1cncn1)c1cc(F)ccc1F [Isavuconazole]
isolates with more than 10× increase (Candida auris; Candida auris, antifungal with BromAc): 4 of 5 | Observed inhibitory effect (Candida auris): Strong (Strong = 5-10x (or greater) inhibitory effect) | Observed inhibitory effect (Licthemia): Possible | Observed inhibitory effect (Cunninghamella): Possible | Observed inhibitory effect (Candida tropicalis): Strong (Strong = 5-10x (or greater) inhibitory effect) | Observed inhibitory effect (Scedosporium): No effect | Observed inhibitory effect (Candida glabrata): Strong (Strong = 5-10x (or greater) inhibitory effect) | isolates with more than a 10× increase in sensitivity (Candida glabrata; antifungal with BromAc): 5 of 5 | Observed inhibitory effect (Mucor circinelloides; antifungal in combination with BromAc (5 mg/ml Acetylcysteine+12.5 μg/ml Bromelain) vs alone): Strong (Strong = 5-10x (or greater) inhibitory effect) | isolates with increased sensitivity (Mucor circinelloides; antifungal with BromAc): 2 of 2 | Observed inhibitory effect (Fusarium): No effect | Observed inhibitory effect (Cryptococcus): Strong (Strong = 5-10x (or greater) inhibitory effect) | isolates with more than 10× increase (Cryptococcus): 5 of 5 | Observed inhibitory effect (Aspergillus): Moderate (Moderate = 1-5x inhibitory effect) | Observed inhibitory effect (Candida kruseii): Strong (Strong = 5-10x (or greater) inhibitory effect) | Observed inhibitory effect (Lomentospora): No effect | isolates with more than 10× increase (Rhizopus microsporus; Rhizopus microspores, antifungal with BromAc): 9 of 10 | MIC (Rhizopus microsporus; Rhizopus microsporus, eight R. microsporus strains, read-out: MIC, average over the strains): 0.9 µg/mL (≈ 2.06 µM) | MIC (Rhizopus microsporus; Rhizopus microsporus, isolate R. microsporus 1, BromAc at constant concentration where combined, read-out: MIC): 0.2 µg/mL | MIC (Rhizopus microsporus; Rhizopus microsporus, isolate R. microsporus 2, BromAc at constant concentration where combined, read-out: MIC): 0.5 µg/mL | MIC (Rhizopus microsporus; Rhizopus microsporus, isolate R. microsporus 3, BromAc at constant concentration where combined, read-out: MIC): 0.5 µg/mL | MIC (Rhizopus microsporus; Rhizopus microsporus, isolate R. microsporus 4, BromAc at constant concentration where combined, read-out: MIC): 1 µg/mL | MIC (Rhizopus microsporus; Rhizopus microsporus, isolate R. microsporus 5, BromAc at constant concentration where combined, read-out: MIC): 0.5 µg/mL | MIC (Rhizopus microsporus; Rhizopus microsporus, isolate R. microsporus 6, BromAc at constant concentration where combined, read-out: MIC): 0.5 µg/mL | MIC (Rhizopus microsporus; Rhizopus microsporus, isolate R. microsporus 7, BromAc at constant concentration where combined, read-out: MIC): 0.5 µg/mL | Observed inhibitory effect (Rhizopus microsporus; Rhizopus microsporus, antifungal in combination with BromAc (5 mg/ml Acetylcysteine+12.5 μg/ml Bromelain) vs alone): Strong (Strong = 5-10x (or greater) inhibitory effect) | MICs, range over the strains (Rhizopus microsporus; eight R. microsporus strains): 0.5 to 1 µg/mL | isolates with 10× increase (Rhizopus arrhizus; Rhizopus Arrhizus, antifungal with BromAc): 6 of 8 | MIC (Rhizopus arrhizus; Rhizopus arrhizus, eight R. arrhizus strains, read-out: MIC, average over the strains): 0.8 µg/mL (≈ 1.83 µM) | MIC (Rhizopus arrhizus; Rhizopus arrhizus, isolate R. archizus 1, BromAc at constant concentration where combined, read-out: MIC): 1 µg/mL | MIC (Rhizopus arrhizus; Rhizopus arrhizus, isolate R. archizus 2, BromAc at constant concentration where combined, read-out: MIC): 1 µg/mL | MIC (Rhizopus arrhizus; Rhizopus arrhizus, isolate R. archizus 3, BromAc at constant concentration where combined, read-out: MIC): 1 µg/mL | MIC (Rhizopus arrhizus; Rhizopus arrhizus, isolate R. archizus 8, BromAc at constant concentration where combined, read-out: MIC): 1 µg/mL | MIC (Rhizopus arrhizus; Rhizopus arrhizus, isolate R. arrhizus 4, BromAc at constant concentration where combined, read-out: MIC): 1 µg/mL | MIC (Rhizopus arrhizus; Rhizopus arrhizus, isolate R. arrhizus 5, BromAc at constant concentration where combined, read-out: MIC): 0.5 µg/mL | MIC (Rhizopus arrhizus; Rhizopus arrhizus, isolate R. arrhizus 6, BromAc at constant concentration where combined, read-out: MIC): 1 µg/mL | MIC (Rhizopus arrhizus; Rhizopus arrhizus, isolate R. arrhizus 7, BromAc at constant concentration where combined, read-out: MIC): 0.5 µg/mL | Observed inhibitory effect (Rhizopus arrhizus; Rhizopus arrhizus, antifungal in combination with BromAc (5 mg/ml Acetylcysteine+12.5 μg/ml Bromelain) vs alone): Strong (Strong = 5-10x (or greater) inhibitory effect) | MICs, range over the strains (Rhizopus arrhizus; eight R. arrhizus strains): 0.5 to 2 µg/mL

C[C@@H](c1ncncc1F)[C@](O)(Cn1cncn1)c1ccc(F)cc1F [Voriconazole]
MIC ([3]; Aspergillus fumigatus, ATCC13697, FIGS. 13a, 14a, read-out: MIC): 2 µg/mL | effect at lower concentrations (in words) ([3]; Voriconazole 1 μg/ml and 0.5 μg/ml, Caspofungin 0.25 μg/ml and 0.125 μg/ml): almost no inhibitory effect
